US7932262B2 (Novartis AG, priority 2006, dated 2011)

Legend:
[1] = test system: PC3MM cells; assay: Cell Proliferation Assay (Cell Titer Glo), PC3MM; format: cell-based; details: cell proliferation, PC3MM cells; read-out: CPEC50 PC3MM
Outline: (§1)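 Following a 3-day compound exposure (37° C., 5% CO2) of A2780 or PC3MM cells plated at 1000 per well, viability was measured by Cell Titer Glo luminescence in fresh medium, read 10 min after reagent addition.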

[2] = target: T1, PDK1 kinase (Homo sapiens, UniProt O15530); assay: PDK1 Kinase Alpha Screen Assay; format: biochemical; details: PDK1 Kinase Alpha Screen Assay; read-out: PDK1 IC50
T1 sequence (O15530 1-556): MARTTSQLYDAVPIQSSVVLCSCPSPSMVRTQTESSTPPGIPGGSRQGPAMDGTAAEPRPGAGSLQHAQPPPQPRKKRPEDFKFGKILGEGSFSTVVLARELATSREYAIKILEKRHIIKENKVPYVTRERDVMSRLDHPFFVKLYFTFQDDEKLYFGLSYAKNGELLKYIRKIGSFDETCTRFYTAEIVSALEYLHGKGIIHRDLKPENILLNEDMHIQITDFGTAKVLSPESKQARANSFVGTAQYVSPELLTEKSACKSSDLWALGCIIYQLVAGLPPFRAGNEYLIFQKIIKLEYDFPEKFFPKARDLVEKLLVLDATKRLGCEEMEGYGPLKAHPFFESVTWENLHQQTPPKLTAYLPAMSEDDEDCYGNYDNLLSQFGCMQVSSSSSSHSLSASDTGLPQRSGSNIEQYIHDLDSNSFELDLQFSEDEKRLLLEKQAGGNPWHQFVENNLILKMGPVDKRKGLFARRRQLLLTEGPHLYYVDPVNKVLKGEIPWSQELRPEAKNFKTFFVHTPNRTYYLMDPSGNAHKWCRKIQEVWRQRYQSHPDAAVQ
Outline: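 Detection used AlphaScreen: streptavidin donor and protein A acceptor beads (25 μg/ml each) bridged by a phospho-(Ser/Thr) PKA substrate antibody binding phosphorylated peptide. Reaction: biotin-PDK1-4 peptide (50 nM), ATP (10 uM), PDK1 in pH 7.5 Tris/MgCl2/DTT buffer, 3-18 hours, EDTA-stopped.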

[3] = test system: A2780 cells; assay: Cell Proliferation Assay (Cell Titer Glo), A2780; format: cell-based; details: Homo sapiens; cell proliferation, A2780 cells; read-out: CPEC50 A2780
Outline: as §1

SMILES | EC50 [1] | IC50 [2] | EC50 [3]
NS(=O)(=O)c1ccc(Nc2ncc3cccc(C(=O)N[C@H]4CN5CCC4CC5)c3n2)cc1 [Compound 807, (R)-N-(quinuclidin-3-yl)-2-(4-sulfamoylphenylamino)quinazoline-8-carboxamide] | 5 to 10 µM | 5 to 10 µM | 5 to 10 µM
NS(=O)(=O)c1ccc(Nc2ncc3cccc(C(=O)N[C@@H]4CN5CCC4CC5)c3n2)cc1 [Compound 809, (S)-N-(quinuclidin-3-yl)-2-(4-sulfamoylphenylamino)quinazoline-8-carboxamide] | < 5 µM | < 5 µM | 5 to 10 µM
CN1CCN(C(=O)c2cccc(-c3cccc4cnc(Nc5ccc(S(N)(=O)=O)cc5)nc34)c2)CC1 [Compound 822, 4-(8-(3-(4-methylpiperazine-1-carbonyl)phenyl)quinazolin-2-ylamino)benzenesulfonamide] | < 5 µM | < 5 µM | < 5 µM
Nc1ncc(-c2cccc3cnc(Nc4ccc(S(N)(=O)=O)cc4)nc23)cn1 [Compound 823, 4-(8-(2-aminopyrimidin-5-yl)quinazolin-2-ylamino)benzenesulfonamide] | < 5 µM | < 5 µM | < 5 µM
CN1CCN(C(=O)c2ccc(-c3cccc4cnc(Nc5ccc(S(N)(=O)=O)cc5)nc34)cc2)CC1 [Compound 824, 4-(8-(4-(4-methylpiperazine-1-carbonyl)phenyl)quinazolin-2-ylamino)benzenesulfonamide] | < 5 µM | < 5 µM | < 5 µM
NS(=O)(=O)c1ccc(Nc2ncc3cccc(-c4ccc(N5CCOCC5)nc4)c3n2)cc1 [Compound 826, 4-(8-(6-morpholinopyridin-3-yl)quinazolin-2-ylamino)benzenesulfonamide] | < 5 µM | < 5 µM | < 5 µM
NS(=O)(=O)c1ccc(Nc2ncc3cccc(-c4ccc(N5CCNC(=O)C5)nc4)c3n2)cc1 [Compound 828, 4-(8-(6-(3-oxopiperazin-1-yl)pyridin-3-yl)quinazolin-2-ylamino)benzenesulfonamide] | < 5 µM | < 5 µM | < 5 µM
CC(=O)NCCNc1ccc(-c2cccc3cnc(Nc4ccc(S(N)(=O)=O)cc4)nc23)cn1 [Compound 829, N-(2-(5-(2-(4-sulfamoylphenylamino)quinazolin-8-yl)pyridin-2-ylamino)ethyl)acetamide] | < 5 µM | < 5 µM | < 5 µM
CC(C)Nc1ccc(-c2cccc3cnc(Nc4ccc(S(N)(=O)=O)cc4)nc23)cn1 [Compound 831, 4-(8-(6-(isopropylamino)pyridin-3-yl)quinazolin-2-ylamino)benzenesulfonamide] | < 5 µM | < 5 µM | < 5 µM
NS(=O)(=O)c1ccc(Nc2ncc3cccc(-c4ccc(N5CCCC5)nc4)c3n2)cc1 [Compound 832, 4-(8-(6-(pyrrolidin-1-yl)pyridin-3-yl)quinazolin-2-ylamino)benzenesulfonamide] | < 5 µM | < 5 µM | < 5 µM
NS(=O)(=O)c1ccc(Nc2ncc3cccc(-c4cc[nH]c(=O)c4)c3n2)cc1 [Compound 833, 4-(8-(2-oxo-1,2-dihydropyridin-4-yl)quinazolin-2-ylamino)benzenesulfonamide] | < 5 µM | < 5 µM | 5 to 10 µM
NS(=O)(=O)c1ccc(Nc2ncc3cccc(-c4ccc(N5CCS(=O)(=O)CC5)nc4)c3n2)cc1 [Compound 834] | < 5 µM | < 5 µM | < 5 µM
CC(C)CN1CC(Oc2cccc3cnc(Nc4ccc(S(N)(=O)=O)cc4)nc23)C1 [Compound 835, 4-(8-(1-isobutylazetidin-3-yloxy)quinazolin-2-ylamino)benzenesulfonamide] | < 5 µM | < 5 µM | < 5 µM
NS(=O)(=O)c1ccc(Nc2ncc3ccc(-c4ccc(F)nc4F)cc3n2)cc1 [Compound 836, 4-(7-(2,6-difluoropyridin-3-yl)quinazolin-2-ylamino)benzenesulfonamide] | < 5 µM | < 5 µM | < 5 µM

Now from value to compound:

EC50 [1] | IC50 [2] | EC50 [3] | SMILES
< 5 µM | < 5 µM | 5 to 10 µM | NS(=O)(=O)c1ccc(Nc2ncc3ccc(-c4ccc(C(=O)N5CCOCC5)cc4)cc3n2)cc1 [Compound 802, 4-(7-(4-(morpholine-4-carbonyl)phenyl)quinazolin-2-ylamino)benzenesulfonamide]
< 5 µM | < 5 µM | 5 to 10 µM | NS(=O)(=O)c1ccc(Nc2ncc3cccc(C(=O)NC4CCCNC4)c3n2)cc1 (stereo not drawn) [Compound 803, N-(piperidin-3-yl)-2-(4-sulfamoylphenylamino)quinazoline-8-carboxamide]
< 5 µM | < 5 µM | 5 to 10 µM | CN(C)[C@@H]1CCN(C(=O)c2cccc3cnc(Nc4ccc(S(N)(=O)=O)cc4)nc23)C1 [Compound 804, (R)-4-(8-(3-(dimethylamino)pyrrolidine-1-carbonyl)quinazolin-2-ylamino)benzenesulfonamide]
< 5 µM | < 5 µM | 5 to 10 µM | NS(=O)(=O)c1ccc(Nc2ncc3cccc(C(=O)NC4CCNCC4)c3n2)cc1 [Compound 805, N-(piperidin-4-yl)-2-(4-sulfamoylphenylamino)quinazoline-8-carboxamide]
< 5 µM | < 5 µM | 5 to 10 µM | CN(C)[C@H]1CCN(C(=O)c2cccc3cnc(Nc4ccc(S(N)(=O)=O)cc4)nc23)C1 [Compound 806, (S)-4-(8-(3-(dimethylamino)pyrrolidine-1-carbonyl)quinazolin-2-ylamino)benzenesulfonamide]
< 5 µM | < 5 µM | 5 to 10 µM | NS(=O)(=O)c1ccc(Nc2ncc3cccc(C(=O)N4CCNC(=O)C4)c3n2)cc1 [Compound 808, 4-(8-(3-oxopiperazine-1-carbonyl)quinazolin-2-ylamino)benzenesulfonamide]
< 5 µM | < 5 µM | 5 to 10 µM | O=S(=O)(NCCN1CCCC1)c1cccc(Nc2ncc3cccc(OC4CCNCC4)c3n2)c1 [Compound 811, 3-(8-(piperidin-4-yloxy)quinazolin-2-ylamino)-N-(2-(pyrrolidin-1-yl)ethyl)benzenesulfonamide]
< 5 µM | < 5 µM | < 5 µM | O=S(=O)(NC1CC1)c1cccc(Nc2ncc3cccc(OC4CCNCC4)c3n2)c1 [Compound 812, N-cyclopropyl-3-(8-(piperidin-4-yloxy)quinazolin-2-ylamino)benzenesulfonamide]
< 5 µM | < 5 µM | < 5 µM | NS(=O)(=O)c1ccc(Nc2ncc3ccc(-c4ccc5cn[nH]c5c4)cc3n2)cc1 [Compound 813, 4-(7-(1H-indazol-6-yl)quinazolin-2-ylamino)benzenesulfonamide]
< 5 µM | < 5 µM | < 5 µM | COc1ncc(-c2ccc3cnc(Nc4ccc(S(N)(=O)=O)cc4)nc3c2)cn1 [Compound 814, 4-(7-(2-methoxypyrimidin-5-yl)quinazolin-2-ylamino)benzenesulfonamide]
< 5 µM | < 5 µM | < 5 µM | NS(=O)(=O)c1ccc(Nc2ncc3ccc(Nc4ccc5cn[nH]c5c4)cc3n2)cc1 [Compound 815, 4-(7-(1H-indazol-6-ylamino)quinazolin-2-ylamino)benzenesulfonamide]
< 5 µM | < 5 µM | < 5 µM | CCN1CCC(Oc2cccc3cnc(Nc4ccc(S(N)(=O)=O)cc4)nc23)CC1 [Compound 817, 4-(8-(1-ethylpiperidin-4-yloxy)quinazolin-2-ylamino)benzenesulfonamide]
< 5 µM | < 5 µM | < 5 µM | CC(C)N1CC(Oc2cccc3cnc(Nc4ccc(S(N)(=O)=O)cc4)nc23)C1 [Compound 818, 4-(8-(1-isopropylazetidin-3-yloxy)quinazolin-2-ylamino)benzenesulfonamide]
< 5 µM | < 5 µM | 5 to 10 µM | NS(=O)(=O)c1ccc(Nc2ncc3cccc(OC4CNC4)c3n2)cc1 [Compound 819, 4-(8-(azetidin-3-yloxy)quinazolin-2-ylamino)benzenesulfonamide]
< 5 µM | < 5 µM | < 5 µM | NS(=O)(=O)c1ccc(Nc2ncc3ccc(C(=O)N4CCCC4)cc3n2)cc1 [Compound 820, 4-(7-(pyrrolidine-1-carbonyl)quinazolin-2-ylamino)benzenesulfonamide]
< 5 µM | < 5 µM | < 5 µM | Nc1ccc(-c2cccc3cnc(Nc4ccc(S(N)(=O)=O)cc4)nc23)cn1 [Compound 821, 4-(8-(6-aminopyridin-3-yl)quinazolin-2-ylamino)benzenesulfonamide]
